Laboratory results reported in US11332470B2, “CXCR4 inhibitors and uses thereof” (X4 Pharmaceuticals, Inc., priority 2016, dated 2022).

Tests used:
in vitro = details: human, Caco-2, pH 7.4
Procedure: The goal of this assay was to evaluate the intestinal absorption potential of drug candidates using Caco-2 cell lines.
1. Prewarm Prewarm HBSS Buffer in 37° C. water bath
2. Sonicate Take compounds from −20° C., sonicate for a few minutes (no less than 1 minute)
• Donor solution buffer: For A-to-B Direction: HBSS buffer with 0.3% DMSO and 5 μM LY: add 150 μL DMSO and 50 μL LY (5 mM) into 50 ml HBSS buffer (pH 7.4). HBSS buffer with 0.1% DMSO and 5 μM LY: add 50 μL DMSO and 50 μL LY (5 mM) into 50 mL HBSS buffer (pH 7.4). For B-to-A Direction: HBSS buffer with 0.3% DMSO: add 150 μL DMSO into 50 ml HBSS buffer (pH 7.4). HBSS buffer with 0.1% DMSO: add 50 μL DMSO into 50 ml HBSS buffer (pH 7.4). Receiver Solution Buffer: For A-to-B Direction: Prepare HBSS buffer with 0.4% DMSO: add 200 μL DMSO into 50 ml HBSS buffer (pH 7.4). For B-to-A Direction: Prepare HBSS buffer with 0.4% DMSO and 5 μM LY: add 200 μL DMSO and 50 μL LY (5 mM) into 50 ml HBSS buffer (pH 7.4).
4. Measure TEER Take cell culture plate out of incubator, wash the cell monolayers with HBSS buffer, and then measure TEER values at Rm temperature. 5. Centrifuge Centrifuge the compound solution (from step 3) at 4000 rpm for 5 min before loading to donor chambers. 6. Dosing Add solution based on the volumes listed in the following table (make sure to take extra 100 μL of donor sample for TO as Backup).
7. Apical LYT0 samples To determine LY concentration in the apical chamber, take 100 μL sample from apical chambers into an opaque plate for LYT0. 8. Prewarm Prewarm apical and basolateral plates at 37° C. for about 5 min, then begin transport by placing the apical plate onto basolateral plate. 9. Incubation Keep the plates in incubator at 37° C. for 90 min. 10.
Prepare Working Solution in MeOH/H2O (1:1)
• Prepare 1×solution: 3 μL (20×)+57 μL of 0.4% DMSO HBSS+60 μL ACN with IS (Osalmid or Imipramine)−120 μL (1×) 11. Transport termination Separate the apical plate from the basolateral plate after 90-min incubation. 12. Measure LY Take 100 μL samples from basolateral plate to an opaque plate as LYT90. 13. Measure LY concentrations for LYT0 and LYT90 by Fluorometer (at excitation of 485 nm/emission of 535 nm). 14.
Study details: Test concentration 10 μM
Test systems: Caco-2/HBSS solution
Incubation conditions: 0, 90 min at 37° C.
Sample size: Duplicates (n=2)
Bioanalytical method: LC-MS/MS
For Millicell-24 Cell Culture Plates: surface area of the membrane=0.7 cm^2, VA=0.8 mL (A-to-B) or 0.4 mL (B-to-A)
The compound numbers correspond to the compound numbers in Table 1.

CXCR4 (U87.CXCR4 cells) = molecular target: T1, CXCR4 (U87.CXCR4 cells) (Homo sapiens, UniProt P61073); test: Intracellular CXCL-12-induced calcium mobilization assay (FLIPR); format: cell-based; details: CXCL-12 25-50 ng/mL, read-out: IC50 CXCL-12 Ca2+ flux U87.CXCR4+
T1 construct: expressed in transfected cells; host or cells: U87 (U87.CXCR4)
T1 sequence (P61073 whole entry): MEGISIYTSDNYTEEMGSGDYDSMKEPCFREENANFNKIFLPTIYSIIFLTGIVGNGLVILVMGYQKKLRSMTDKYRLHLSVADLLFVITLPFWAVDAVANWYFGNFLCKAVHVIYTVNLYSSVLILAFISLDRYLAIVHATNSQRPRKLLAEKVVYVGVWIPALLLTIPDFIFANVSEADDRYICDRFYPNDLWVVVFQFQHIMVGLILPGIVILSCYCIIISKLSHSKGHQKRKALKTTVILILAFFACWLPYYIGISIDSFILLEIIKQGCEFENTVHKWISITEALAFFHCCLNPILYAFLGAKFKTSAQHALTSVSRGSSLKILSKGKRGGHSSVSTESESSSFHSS
Method in brief: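 U87.CXCR4 cells were loaded with 4 μM Fluo-2 AM for 45 min at 37 °C in HBSS/20 mM HEPES/0.2% BSA, pH 7.4. Calcium flux induced by CXCL-12 (25-50 ng/mL) was monitored kinetically by FLIPR fluorescence at 37 °C.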

[1] = molecular target: T2, CXCR4 (Jurkat cells expressing CXCR4) (Homo sapiens, UniProt P61073); test: Chemokine (CXCL12-AF647) binding inhibition assay; details: CXCL12-AF647 25 ng/mL, read-out: IC50 CXCL-12 binding Jurkat
T2 construct: Jurkat cells expressing CXCR4; endogenous in cells; host or cells: Jurkat
T2 sequence (P61073 whole entry): as above
Method in brief: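 Cells in HBSS, 20 mM HEPES, 0.2% BSA, pH 7.4, preincubated 15 min at room temperature with compound, then 25 ng/mL CXCL12-AF647 for 30 min. After washing and paraformaldehyde fixation, bound ligand read by flow cytometry; percent inhibition calculated from MFI relative to unlabeled and ligand-only controls.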

Row | Papp A→B at 90 min, 10 μM (in vitro) [×10⁻⁶ cm/s] | Papp B→A at 90 min, 10 μM (in vitro) [×10⁻⁶ cm/s] | efflux ratio at 90 min, 10 μM (in vitro) | IC50 (CXCR4 (U87.CXCR4 cells)) [nM] | IC50 [1] [nM] | SMILES
1 | 10 to 30 | > 30 | 0.1 to 10 | 100 to 1000 | 100 to 1000 | c1ccc(C2CCCN2Cc2nc3ccccn3c2-c2ccncc2)nc1 (centres unmarked) [Compound I-80]
2 | 10 to 30 | > 30 | 0.1 to 10 | ≥ 1000 | 100 to 1000 | N#CCCc1c(CN2CCCC2c2ccccn2)nc2ccccn12 (centres unmarked) [Compound I-82]
3 | 0.1 to 10 | > 30 | 0.1 to 10 | ≥ 1000 | 100 to 1000 | Cc1cccnc1C1CCCN1Cc1cn2c(CCC#N)cccc2n1 (centres unmarked) [Compound I-83]
4 | 0.1 to 10 | > 30 | 0.1 to 10 | ≥ 1000 | ≥ 1000 | N#CCCc1cccc2nc(CN3CCCC3c3ccccn3)cn12 (centres unmarked) [Compound I-84]
5 | 0.1 to 10 | > 30 | 0.1 to 10 | ≥ 1000 | 100 to 1000 | CN1CCN(c2c(CN3CCCC3c3ccccn3)nc3ccccn23)CC1=O (centres unmarked) [Compound I-85]
6 | 0.1 to 10 | 10 to 30 | 10 to 30 | ≥ 1000 | ≥ 1000 | O=C1CN(c2c(CN3CCCC3c3ccccn3)nc3ccccn23)CCN1 (centres unmarked) [Compound I-86]
7 | 10 to 30 | 10 to 30 | 0.1 to 10 | ≥ 1000 | 100 to 1000 | Cc1cccnc1C1CCCN1Cc1nccn1Cc1ccncc1 (centres unmarked) [Compound I-87]
8 | 10 to 30 | 10 to 30 | 0.1 to 10 | ≥ 1000 | 100 to 1000 | Cc1cccnc1C1CCCN1Cc1nccn1Cc1cccnc1 (centres unmarked) [Compound I-88]
9 | 10 to 30 | > 30 | 0.1 to 10 | ≥ 1000 | 100 to 1000 | Cc1cccnc1C1CCCN1Cc1nccn1Cc1ccccn1 (centres unmarked) [Compound I-89]
10 | > 30 | > 30 | 0.1 to 10 | ≥ 1000 | 100 to 1000 | c1ccc(C2CCCN2Cc2nc3ccccn3c2N2CCOCC2)nc1 (centres unmarked) [Compound I-91]
11 | 0.1 to 10 | 10 to 30 | 0.1 to 10 | 100 to 1000 | 0.01 to 100 | Cc1cccnc1CN1CCCC1c1nccn1CC1CCN(C)CC1 (centres unmarked) [Compound I-92]
12 | 10 to 30 | > 30 | 0.1 to 10 | ≥ 1000 | ≥ 1000 | c1ccc(OCc2c(CN3CCCC3c3ccccn3)nc3ccccn23)nc1 (centres unmarked) [Compound I-94]
13 | 10 to 30 | 10 to 30 | 0.1 to 10 | ≥ 1000 | 100 to 1000 | c1ccc(N2CCN(c3c(CN4CCCC4c4ccccn4)nc4ccccn34)CC2)cc1 (centres unmarked) [Compound I-96]
14 | > 30 | > 30 | 0.1 to 10 | 100 to 1000 | 0.01 to 100 | c1ccc(C2CCCN2Cc2nc3ccccn3c2N2CCN(c3ccccn3)CC2)nc1 (centres unmarked) [Compound I-97]
15 | > 30 | > 30 | 0.1 to 10 | 100 to 1000 | 0.01 to 100 | FC(F)(F)CN1CCN(c2c(CN3CCCC3c3ccccn3)nc3ccccn23)CC1 (centres unmarked) [Compound I-98]
16 | 0.1 to 10 | > 30 | > 30 | 100 to 1000 | 0.01 to 100 | Cc1cccnc1C1CCCN1Cc1cn2c(C3OCC(N(C)C)CO3)cccc2n1 (centres unmarked) [Compound I-99]

Row | Papp A→B at 90 min, 10 μM (in vitro) [×10⁻⁶ cm/s] | Papp B→A at 90 min, 10 μM (in vitro) [×10⁻⁶ cm/s] | efflux ratio at 90 min, 10 μM (in vitro) | IC50 (CXCR4 (U87.CXCR4 cells)) [nM] | IC50 [1] [nM] | SMILES
17 | 0.1 to 10 | > 30 | 0.1 to 10 | 100 to 1000 | 0.01 to 100 | CN1CCN(c2c(C3CCCN3Cc3ccccn3)nc3ccccn23)CC1 (centres unmarked) [Compound I-101]
18 | 0.1 to 10 | > 30 | > 30 | ≥ 1000 | 100 to 1000 | CN1CCN(c2c(C3CCCN3Cc3ncccn3)nc3ccccn23)CC1 (centres unmarked) [Compound I-102]
19 | 0.1 to 10 | > 30 | 0.1 to 10 | 0.01 to 100 | 0.01 to 100 | Cc1cccnc1CN1CCCC1c1cn2c(N3CCN(C)CC3)cccc2n1 (centres unmarked) [Compound I-103]
20 | 0.1 to 10 | > 30 | 0.1 to 10 | 100 to 1000 | 0.01 to 100 | CN1CCN(c2cccc3nc(C4CCCN4Cc4ccccn4)[nH]c23)CC1 (centres unmarked) [Compound I-104]
21 | 0.1 to 10 | > 30 | 0.1 to 10 | ≥ 1000 | ≥ 1000 | CN1CCN(c2cccc3nc(C4CCCN4Cc4ncccn4)[nH]c23)CC1 (centres unmarked) [Compound I-105]
22 | 10 to 30 | > 30 | 0.1 to 10 | ≥ 1000 | 100 to 1000 | Cc1cccnc1C1CCCN1Cc1nccn1CC1CCN(CC(F)(F)F)CC1 (centres unmarked) [Compound I-106]
23 | 0.1 to 10 | 10 to 30 | 0.1 to 10 | 0.01 to 100 | 0.01 to 100 | Cc1cccnc1C1CCCN1Cc1nccn1CC1CCN(C2CC2)CC1 (centres unmarked) [Compound I-107]
24 | > 30 | > 30 | 0.1 to 10 | ≥ 1000 | 100 to 1000 | Cc1cccnc1C1CCCN1Cc1nccn1CC1CCN(c2ccccn2)CC1 (centres unmarked) [Compound I-109]
25 | 10 to 30 | > 30 | 0.1 to 10 | ≥ 1000 | 100 to 1000 | Cc1cccnc1C1CCCN1Cc1nccn1CC1CCOCC1 (centres unmarked) [Compound I-110]
26 | 0.1 to 10 | 10 to 30 | 0.1 to 10 | ≥ 1000 | 0.01 to 100 | Cc1cccnc1C1CCCN1Cc1nccn1CCCCN1CCOCC1 (centres unmarked) [Compound I-111]
27 | 0.1 to 10 | 10 to 30 | > 30 | 100 to 1000 | 0.01 to 100 | CN1CCC(Cn2ccnc2CN2CCCC2c2ccccn2)CC1 (centres unmarked) [Compound I-112]
28 | 0.1 to 10 | > 30 | > 30 | 0.01 to 100 | 0.01 to 100 | Cc1cccnc1C1CCCN1Cc1ncccc1CC1CCN(C)CC1 (centres unmarked) [Compound I-117]
29 | 0.1 to 10 | > 30 | 0.1 to 10 | ≥ 1000 | 100 to 1000 | Cc1cccnc1C1CCCN1Cc1ncccc1CN1CCOCC1 (centres unmarked) [Compound I-118]
30 | 0.1 to 10 | > 30 | 10 to 30 | 100 to 1000 | 0.01 to 100 | Cc1cccnc1C1CCCN1Cc1nc2ccccn2c1CN1CCOCC1 (centres unmarked) [Compound I-119]
31 | 0.1 to 10 | > 30 | 0.1 to 10 | 0.01 to 100 | 0.01 to 100 | Cc1cccnc1C1CCCN1Cc1nc2ccccc2n1CC1CCN(C)CC1 (centres unmarked) [Compound I-122]
